Experimental data: patent US7491704B2, “Compounds for enzyme inhibition” (Proteolix, Inc., priority 2004, dated 2009)

How the values were obtained:
[1] = target: T1, proteasome chymotrypsin-like activity (CT-L), cell-based (Homo sapiens, UniProt P28074); test: Cell-based CT-L activity inhibition
T1 construct: endogenous in cells
T1 sequence (P28074 60-263): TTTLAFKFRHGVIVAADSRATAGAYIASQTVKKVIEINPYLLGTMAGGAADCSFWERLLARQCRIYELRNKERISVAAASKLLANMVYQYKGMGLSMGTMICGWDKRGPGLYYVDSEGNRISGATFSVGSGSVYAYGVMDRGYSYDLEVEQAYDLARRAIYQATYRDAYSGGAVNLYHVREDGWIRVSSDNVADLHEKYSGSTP

[2] = target: 20S proteasome chymotrypsin-like activity (CT-L) (Homo sapiens, UniProt P20618+P28074); test: 20S proteasome chymotrypsin-like (CT-L) activity inhibition; assay type: biochemical
Procedure: The enzyme inhibitor analogs and prodrugs disclosed herein are useful in part because they inhibit the action of the 20S proteasome. […] That is, the instant compounds show selectivities for the 20S proteasome over other proteases such as cathepsins, calpains, papain, chymotrypsin, trypsin, tripeptidyl pepsidase II. The selectivities of the enzyme inhibitors for 20S proteasome are such that at concentrations below about 50 μM, the enzyme inhibitors show inhibition of the catalytic activity of the 20S proteasome, while not showing inhibition of the catalytic activity of other proteases such as cathepsins, calpains, papain, chymotrypsin, trypsin, tripeptidyl pepsidase II. In preferred embodiments, the enzyme inhibitors show inhibition of the catalytic activity of the 20S proteasome at concentrations below about 10 μM, while not showing inhibition of the catalytic activity of other proteases at these concentrations. […]
The chymotrypsin-like activity of 20S proteasome is characterized by cleavage of peptides in the immediate vicinity of large hydrophobic residues. In particular, the chymotrypsin-like activity of Ntn hydrolases can be determined by cleavage of a standard substrate. […]

IC50 [1]: < 100 nM
IC50 [2]: < 100 nM
Compound: CC(C)CC(NC(=O)C(CCc1ccccc1)NC(=O)CN(C)C)C(=O)NC(Cc1ccccc1)C(=O)NC(CC(C)C)C(=O)C1(C)CO1 (centres unmarked) [compound 3]
